Measured values: patent US8076159B2, “Ligand-regulable transactivation systems, methods of use thereof, methods of detecting estrogen receptor ligands, and methods of differentiating estrogen receptor ligand agonists and antagonists” (The Board of Trustees of the Leland Stanford Junior …, priority 2006, dated 2011)

Molecular target: T1, GAL4-ER (LBD)-VP16 fusion protein (Homo sapiens, UniProt P03372, G400V)
T1 construct: was used to replace the ER of 281-595; expressed in transfected cells; host or cells: 293T cells (A1, A2, A3, A5)
T1 sequence (P03372 281-595 G400V): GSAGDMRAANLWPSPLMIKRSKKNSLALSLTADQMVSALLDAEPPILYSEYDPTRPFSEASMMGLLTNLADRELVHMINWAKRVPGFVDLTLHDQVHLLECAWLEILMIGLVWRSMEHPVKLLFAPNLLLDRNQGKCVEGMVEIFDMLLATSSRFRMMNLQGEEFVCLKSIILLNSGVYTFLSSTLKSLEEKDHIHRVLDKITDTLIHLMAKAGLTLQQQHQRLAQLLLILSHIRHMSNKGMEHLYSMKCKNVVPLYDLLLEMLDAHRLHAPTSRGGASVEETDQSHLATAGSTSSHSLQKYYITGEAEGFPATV
Test: ER-ligand induced transactivation system (GAL4-ER(LBD)-VP16 activator + GAL4-E4-firefly luciferase reporter) in transiently co-transfected 293T cells
Format: cell-based
From the text: Cell Transfection and Luciferase Assay. […] Volumes of Lipofectamine were as recommended by the manufacturer.

fold luciferase signal in comparison to carrier control (1 μM ligand) | SMILES | transactivation signal relative to carrier control (in words) (1 μM)
300±80 fold | C[C@]12CC[C@@H]3c4ccc(O)cc4C[C@@H](CCCCCCCCC[S+]([O-])CCCC(F)(F)C(F)(F)F)[C@H]3[C@@H]1CC[C@@H]2O (some centres unmarked) [ICI] | 
 | N.N.[Cl][Pt][Cl] [non-ligand anticancer drug, cisplatinum] | not significantly different from the cells exposed to carrier control
